The text below walks through data of PubChem BioAssay (NCI).

The structures appear in SMILES notation. “And” between values parts separate entries of the source, which are not always exact repeats. Equal values may be shown once.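 Values below derive from 48-hour exposures of cells grown in 96-well plates, with endpoints linearly interpolated between the two concentrations bracketing the appropriate inhibition level. The concentration for 50% growth inhibition is given as GI50. The concentration for full growth arrest is given as TGI.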 A value given as a limit tells only on which side of the number the result lay.

Test systems include SR leukemia; PC-3 prostate; A498 renal; TK-10 renal; SK-MEL-5 melanoma; OVCAR-5 ovarian; UO-31 renal; OVCAR-8 ovarian; IGROV1 ovarian; MDA-MB-435.
Common to all, as to experiment: NCI-60 cell line screen, 48 h

As to `CCC1(NC(=O)c2cc(F)c(F)c(F)c2F)C(=O)NC(=O)N(C(C)C)C1=O` (stereo unspecified), the GI50 with SR leukemia is 2.98 µM; with PC-3 prostate, 21.6 µM; in the test on A498 renal it was 23.5 µM; in the test with TK-10 renal it was over 100 µM; in the test on SK-MEL-5 melanoma, 16.8 µM; in the test with OVCAR-5 ovarian, over 100 µM. Besides, the GI50 with UO-31 renal is over 100 µM; with OVCAR-8 ovarian, 34.6 µM; with IGROV1 ovarian, 10.4 µM; with MDA-MB-435, 15.8 µM. The TGI in the test on SR leukemia was 9.65 µM; with PC-3 prostate, 63.6 µM; in the test on A498 renal, 53 µM; with TK-10 renal, over 100 µM; with SK-MEL-5 melanoma, 33 µM; in the test on OVCAR-5 ovarian it was over 100 µM. The TGI in the test with UO-31 renal was over 100 µM; with OVCAR-8 ovarian, over 100 µM; with IGROV1 ovarian, 28.7 µM; in the test with MDA-MB-435, 36.2 µM.

For `CCNNC(=O)[C@@H]1[C@H](c2cc(OC)c(OC)c(OC)c2)c2cc3c(cc2[C@H](O)[C@H]1CO)OCO3`, the GI50 in the test with SR leukemia is 0.315 µM; with PC-3 prostate, 0.391 µM; in the test with A498 renal, 0.211 µM; in the test with TK-10 renal, 30.8 µM; with SK-MEL-5 melanoma, 0.236 µM; in the test with OVCAR-5 ovarian, 0.519 µM. For the same compound, the GI50 was 4.32 µM with UO-31 renal, 0.692 µM with OVCAR-8 ovarian, 0.59 µM in the test with IGROV1 ovarian and 0.24 µM in the test on MDA-MB-435. The TGI was over 100 µM in the test with SR leukemia; over 100 µM in the test on PC-3 prostate; 0.703 µM in the test on A498 renal; over 100 µM in the test on TK-10 renal; 0.635 µM in the test on SK-MEL-5 melanoma; over 100 µM in the test with OVCAR-5 ovarian. For the same compound, the TGI is over 100 µM in the test with UO-31 renal, over 100 µM with OVCAR-8 ovarian, over 100 µM in the test on IGROV1 ovarian and 0.697 µM in the test with MDA-MB-435.

Consider `C[C@@H](COCCC(=O)N1CCN(c2ncc(C(F)(F)F)cn2)CC1)Nc1cn[nH]c(=O)c1C(F)(F)F`, for which the GI50 in the test with SR leukemia is 4.04 µM; with PC-3 prostate it was 45.4 µM; in the test on A498 renal, 0.0219 µM; in the test with TK-10 renal it was over 100 µM; in the test with SK-MEL-5 melanoma, 42.3 µM; with OVCAR-5 ovarian it was over 100 µM. The GI50 with UO-31 renal is 32.1 µM; in the test on OVCAR-8 ovarian, 32.7 µM; with IGROV1 ovarian, 42.2 µM; with MDA-MB-435, over 100 µM. The TGI in the test with SR leukemia, in the test on PC-3 prostate, with TK-10 renal, with SK-MEL-5 melanoma, in the test on OVCAR-5 ovarian and with UO-31 renal was over 100 µM in each case. Also, the TGI in the test on OVCAR-8 ovarian, in the test on IGROV1 ovarian and in the test on MDA-MB-435 was over 100 µM in each case.

Regarding `Cc1nc2c(N3CCCC3)nc(N3CCNCC3)nc2nc1NCc1ccccc1`, the GI50 in the test with SR leukemia is 1.53 µM; in the test with A498 renal, 14.2 µM; with SK-MEL-5 melanoma, 4.94 µM; with OVCAR-5 ovarian it was 6.11 µM; in the test on UO-31 renal, 1.48 µM; in the test with OVCAR-8 ovarian, 5.73 µM. Also, the GI50 with IGROV1 ovarian was 4.49 µM; in the test with MDA-MB-435, 4.36 µM. Also, the TGI with SR leukemia was 20 µM and > 20.8 µM; in the test with PC-3 prostate it was 11 µM and 17 µM; with A498 renal, 9.77 µM and 27.2 µM; in the test with TK-10 renal, 11.8 µM and 17.6 µM; in the test with SK-MEL-5 melanoma it was 9.98 µM and 3.06 µM; with OVCAR-5 ovarian, 11.6 µM and 26.1 µM. Also, the TGI in the test on UO-31 renal is 6.06 µM and 6.39 µM; in the test with OVCAR-8 ovarian, 11 µM and 14.5 µM; in the test with IGROV1 ovarian, 9.84 µM and 15.1 µM; with MDA-MB-435 it was 10 µM and 6.41 µM.

Turning to `Cc1ccc2nc(-c3ccc(N)c4ccccc34)[nH]c2c1`, the GI50 is 0.325 µM in the test on SR leukemia; 0.0706 µM with PC-3 prostate; 0.0953 µM with A498 renal; 0.878 µM in the test with TK-10 renal; 0.326 µM in the test with OVCAR-5 ovarian; 0.437 µM in the test with UO-31 renal. Also, the GI50 was 1.31 µM in the test on OVCAR-8 ovarian, 0.424 µM in the test on IGROV1 ovarian and 0.187 µM with MDA-MB-435. The TGI in the test with SR leukemia was 2.09 µM; with PC-3 prostate, 22 µM; in the test with A498 renal it was 16.7 µM; in the test with TK-10 renal, 59.6 µM; in the test with SK-MEL-5 melanoma, 1.73 µM; with OVCAR-5 ovarian, over 73.3 µM. The TGI was 36.4 µM with UO-31 renal, 16.9 µM with OVCAR-8 ovarian, over 42.4 µM in the test with IGROV1 ovarian and 0.444 µM with MDA-MB-435.

For the compound `CC(C)C[C@H](NC(=O)[C@H](Cc1cccc2ccccc12)NS(=O)(=O)c1cccc2cccnc12)B(O)O`, the GI50 with SR leukemia was 0.000169 µM; with PC-3 prostate it was 0.0534 µM; in the test with A498 renal it was 0.00342 µM; in the test with TK-10 renal, 0.036 µM; with SK-MEL-5 melanoma, 0.00539 µM; in the test with OVCAR-5 ovarian, 0.00827 µM. Moreover, the GI50 in the test with UO-31 renal was 0.353 µM; in the test on OVCAR-8 ovarian it was 0.117 µM; in the test on IGROV1 ovarian, 0.0331 µM; with MDA-MB-435, 0.000241 µM. The TGI with SR leukemia is 0.00812 µM; with PC-3 prostate, 0.817 µM and 0.418 µM; in the test on A498 renal, 0.222 µM and 0.126 µM; in the test with TK-10 renal, 0.351 µM; in the test with SK-MEL-5 melanoma, 0.0714 µM and 0.0206 µM; in the test with OVCAR-5 ovarian, 0.138 µM and 0.246 µM. Besides, the TGI in the test with UO-31 renal was 1.06 µM; in the test on OVCAR-8 ovarian, 0.409 µM and 2.9 µM; with IGROV1 ovarian, 0.298 µM and 0.301 µM; in the test on MDA-MB-435 it was 0.000574 µM.
